Publication PMC12073402, “A Selective MAP3K1 Inhibitor Facilitates Discovery of NPM1 as a Member of the Network” (Molecules, 2025)

Assays:
Assay in all cases: KiNativ kinome profiling in PANC-1 lysate
Format in all cases: binding
[1] = molecular target: T1, IRAK4 (Homo sapiens, UniProt Q9NWZ3)
T1 construct: we opted to conduct a kinome screen (KiNativ) in PANC-1 cell lysates; endogenous in cells; host or cells: PANC-1 cell lysate
Procedure, shortened: (§1)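 PANC-1 lysates were incubated with 5 μM inhibitor or DMSO, then labeled with a desthiobiotin-ATP acyl-phosphate probe that biotinylates conserved kinase lysines. Tryptic peptides were streptavidin-enriched and quantified by LC-MS/MS, reported as % change in MS signal from duplicate treated and duplicate control samples.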

[2] = molecular target: T2, MLK1 (Homo sapiens, UniProt P80192); conditions: Lys2
T2 construct: endogenous in cells; host or cells: PANC-1
Procedure, shortened: as §1

[3] = molecular target: T3, ZC1/HGK (Homo sapiens, UniProt O95819); conditions: Lys1
T3 construct: endogenous in cells; host or cells: PANC-1 cell lysate
Procedure, shortened: as §1

[4] = molecular target: T4, PIK3CB (Homo sapiens, UniProt P42338); conditions: ATP
T4 construct: endogenous in cells; host or cells: PANC-1 cell lysate
T4 sequence (P42338 whole entry): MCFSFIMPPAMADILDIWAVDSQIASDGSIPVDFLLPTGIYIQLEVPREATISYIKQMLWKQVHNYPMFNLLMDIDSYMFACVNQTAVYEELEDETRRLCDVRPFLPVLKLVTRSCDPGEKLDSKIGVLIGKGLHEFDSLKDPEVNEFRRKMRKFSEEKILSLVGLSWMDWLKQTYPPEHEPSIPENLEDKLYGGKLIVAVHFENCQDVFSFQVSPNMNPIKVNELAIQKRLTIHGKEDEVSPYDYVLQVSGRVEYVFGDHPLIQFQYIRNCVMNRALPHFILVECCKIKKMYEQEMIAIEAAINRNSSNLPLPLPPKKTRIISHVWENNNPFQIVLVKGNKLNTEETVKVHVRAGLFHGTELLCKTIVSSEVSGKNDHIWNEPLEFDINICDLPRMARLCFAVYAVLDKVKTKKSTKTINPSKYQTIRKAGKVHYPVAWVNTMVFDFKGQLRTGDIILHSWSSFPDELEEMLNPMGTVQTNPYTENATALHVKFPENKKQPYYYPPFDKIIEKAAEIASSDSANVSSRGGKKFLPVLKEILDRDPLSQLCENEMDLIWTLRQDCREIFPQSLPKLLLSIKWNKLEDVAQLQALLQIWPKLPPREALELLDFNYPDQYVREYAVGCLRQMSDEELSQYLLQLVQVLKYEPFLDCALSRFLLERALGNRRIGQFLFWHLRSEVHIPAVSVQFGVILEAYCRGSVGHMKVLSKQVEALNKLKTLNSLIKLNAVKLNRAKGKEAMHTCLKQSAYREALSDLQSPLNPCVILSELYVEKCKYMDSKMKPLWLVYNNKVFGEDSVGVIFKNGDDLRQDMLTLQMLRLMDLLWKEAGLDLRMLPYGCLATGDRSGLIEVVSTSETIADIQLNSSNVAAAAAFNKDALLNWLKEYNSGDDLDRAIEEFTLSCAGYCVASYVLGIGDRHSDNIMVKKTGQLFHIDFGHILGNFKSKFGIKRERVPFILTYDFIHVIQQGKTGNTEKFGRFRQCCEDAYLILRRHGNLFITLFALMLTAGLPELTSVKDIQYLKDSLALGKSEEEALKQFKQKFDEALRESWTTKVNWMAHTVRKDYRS
T4 sequence (P27986 whole entry partner): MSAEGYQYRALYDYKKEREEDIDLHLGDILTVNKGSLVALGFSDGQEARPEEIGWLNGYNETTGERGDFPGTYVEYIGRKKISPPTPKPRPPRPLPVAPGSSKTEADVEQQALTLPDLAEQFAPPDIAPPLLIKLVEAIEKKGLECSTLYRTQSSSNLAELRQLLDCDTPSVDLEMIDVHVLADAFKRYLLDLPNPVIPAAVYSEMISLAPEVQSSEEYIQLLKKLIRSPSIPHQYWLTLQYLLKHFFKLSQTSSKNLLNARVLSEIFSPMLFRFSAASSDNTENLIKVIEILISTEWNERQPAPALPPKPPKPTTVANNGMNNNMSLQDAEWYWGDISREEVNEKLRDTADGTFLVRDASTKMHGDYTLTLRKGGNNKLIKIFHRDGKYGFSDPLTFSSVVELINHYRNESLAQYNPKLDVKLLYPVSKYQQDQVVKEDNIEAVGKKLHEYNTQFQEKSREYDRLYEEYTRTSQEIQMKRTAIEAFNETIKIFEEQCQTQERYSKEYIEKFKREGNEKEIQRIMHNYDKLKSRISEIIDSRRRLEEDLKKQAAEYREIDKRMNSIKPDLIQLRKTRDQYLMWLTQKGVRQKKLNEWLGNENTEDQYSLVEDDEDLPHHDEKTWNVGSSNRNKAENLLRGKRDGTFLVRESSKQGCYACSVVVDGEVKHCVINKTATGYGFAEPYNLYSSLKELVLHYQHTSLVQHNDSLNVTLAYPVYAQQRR
Procedure, shortened: as §1

[5] = test system: AMPKa1, AMPKa2; conditions: 5 µM
Procedure, shortened: as §1

[6] = molecular target: T5, MAP2K5 (Homo sapiens, UniProt Q13163); conditions: Lys2
T5 construct: endogenous in cells; host or cells: PANC-1 cell lysate
Procedure, shortened: as §1

[7] = molecular target: T6, CK1g1 (Homo sapiens, UniProt Q9HCP0); conditions: Lys2
T6 construct: endogenous in cells; host or cells: PANC-1 cell lysate
Procedure, shortened: as §1

[8] = molecular target: T7, CDK6 (Homo sapiens, UniProt Q00534); conditions: Lys2
T7 construct: endogenous in cells; host or cells: PANC-1 cell lysate
T7 sequence (Q00534 whole entry): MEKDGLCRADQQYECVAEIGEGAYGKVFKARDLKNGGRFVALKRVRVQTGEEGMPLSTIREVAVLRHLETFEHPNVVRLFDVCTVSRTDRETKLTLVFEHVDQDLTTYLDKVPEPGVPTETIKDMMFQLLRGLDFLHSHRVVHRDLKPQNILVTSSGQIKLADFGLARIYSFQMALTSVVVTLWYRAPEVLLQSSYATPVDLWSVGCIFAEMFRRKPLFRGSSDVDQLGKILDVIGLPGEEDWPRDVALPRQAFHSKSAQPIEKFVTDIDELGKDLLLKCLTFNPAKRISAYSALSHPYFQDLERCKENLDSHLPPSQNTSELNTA
Procedure, shortened: as §1

[9] = molecular target: T8, MAP3K4 (Homo sapiens, UniProt Q9Y6R4)
T8 construct: endogenous in cells; host or cells: PANC-1 cell lysate
T8 sequence (Q9Y6R4 whole entry): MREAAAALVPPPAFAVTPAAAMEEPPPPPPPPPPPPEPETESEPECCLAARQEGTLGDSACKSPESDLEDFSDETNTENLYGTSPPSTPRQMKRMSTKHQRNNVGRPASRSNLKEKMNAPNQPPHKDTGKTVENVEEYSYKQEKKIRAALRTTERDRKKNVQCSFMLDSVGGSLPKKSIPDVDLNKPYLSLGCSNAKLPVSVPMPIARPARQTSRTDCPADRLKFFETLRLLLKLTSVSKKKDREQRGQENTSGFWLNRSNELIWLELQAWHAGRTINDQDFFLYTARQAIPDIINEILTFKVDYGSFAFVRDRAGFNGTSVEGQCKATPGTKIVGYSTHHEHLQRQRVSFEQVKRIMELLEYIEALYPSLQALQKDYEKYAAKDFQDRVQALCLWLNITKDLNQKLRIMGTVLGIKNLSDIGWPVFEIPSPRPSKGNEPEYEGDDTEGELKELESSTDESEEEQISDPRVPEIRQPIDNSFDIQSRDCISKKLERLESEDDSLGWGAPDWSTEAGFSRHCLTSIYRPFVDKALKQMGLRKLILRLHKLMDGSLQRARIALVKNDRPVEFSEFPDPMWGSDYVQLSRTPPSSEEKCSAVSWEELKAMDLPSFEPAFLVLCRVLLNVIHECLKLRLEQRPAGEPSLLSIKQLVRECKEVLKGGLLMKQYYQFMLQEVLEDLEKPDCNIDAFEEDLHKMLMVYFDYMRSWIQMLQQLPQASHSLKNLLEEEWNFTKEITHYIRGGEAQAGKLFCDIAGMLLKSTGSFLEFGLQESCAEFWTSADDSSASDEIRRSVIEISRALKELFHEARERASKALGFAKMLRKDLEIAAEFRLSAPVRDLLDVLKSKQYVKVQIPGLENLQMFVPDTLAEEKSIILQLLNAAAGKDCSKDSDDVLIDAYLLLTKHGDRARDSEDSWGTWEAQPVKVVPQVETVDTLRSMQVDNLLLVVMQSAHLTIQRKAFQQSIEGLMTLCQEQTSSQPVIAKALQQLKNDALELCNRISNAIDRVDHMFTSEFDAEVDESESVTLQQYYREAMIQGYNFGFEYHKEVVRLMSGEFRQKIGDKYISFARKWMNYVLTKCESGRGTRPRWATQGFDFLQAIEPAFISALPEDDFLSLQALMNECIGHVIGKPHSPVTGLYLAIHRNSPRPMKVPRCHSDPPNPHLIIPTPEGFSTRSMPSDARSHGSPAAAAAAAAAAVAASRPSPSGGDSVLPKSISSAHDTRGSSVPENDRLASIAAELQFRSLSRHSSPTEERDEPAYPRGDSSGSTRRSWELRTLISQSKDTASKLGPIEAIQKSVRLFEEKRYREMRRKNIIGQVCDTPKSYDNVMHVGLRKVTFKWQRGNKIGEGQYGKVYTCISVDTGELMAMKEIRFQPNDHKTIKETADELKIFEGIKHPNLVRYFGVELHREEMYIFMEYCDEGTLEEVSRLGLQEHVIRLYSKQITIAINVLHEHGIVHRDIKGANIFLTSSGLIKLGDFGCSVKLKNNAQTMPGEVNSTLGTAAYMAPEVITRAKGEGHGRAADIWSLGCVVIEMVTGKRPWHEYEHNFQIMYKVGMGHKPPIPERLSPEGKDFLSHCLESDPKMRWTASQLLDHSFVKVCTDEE
Procedure, shortened: as §1

[10] = molecular target: T9, CASK (Homo sapiens, UniProt O14936); conditions: Lys1
T9 construct: endogenous in cells; host or cells: PANC-1 cell lysate
Procedure, shortened: as §1

[11] = molecular target: T10, QSK (Homo sapiens, UniProt Q9Y2K2); conditions: Lys1
T10 construct: endogenous in cells; host or cells: PANC-1 cell lysate
Procedure, shortened: as §1

[12] = molecular target: T11, PKN2 (Homo sapiens, UniProt Q16513); conditions: Lys2
T11 construct: endogenous in cells; host or cells: PANC-1 cell lysate
Procedure, shortened: as §1

[13] = molecular target: T12, PAK2 (Homo sapiens, UniProt Q13177)
T12 construct: endogenous in cells; host or cells: PANC-1 cell lysate
T12 sequence (Q13177 whole entry): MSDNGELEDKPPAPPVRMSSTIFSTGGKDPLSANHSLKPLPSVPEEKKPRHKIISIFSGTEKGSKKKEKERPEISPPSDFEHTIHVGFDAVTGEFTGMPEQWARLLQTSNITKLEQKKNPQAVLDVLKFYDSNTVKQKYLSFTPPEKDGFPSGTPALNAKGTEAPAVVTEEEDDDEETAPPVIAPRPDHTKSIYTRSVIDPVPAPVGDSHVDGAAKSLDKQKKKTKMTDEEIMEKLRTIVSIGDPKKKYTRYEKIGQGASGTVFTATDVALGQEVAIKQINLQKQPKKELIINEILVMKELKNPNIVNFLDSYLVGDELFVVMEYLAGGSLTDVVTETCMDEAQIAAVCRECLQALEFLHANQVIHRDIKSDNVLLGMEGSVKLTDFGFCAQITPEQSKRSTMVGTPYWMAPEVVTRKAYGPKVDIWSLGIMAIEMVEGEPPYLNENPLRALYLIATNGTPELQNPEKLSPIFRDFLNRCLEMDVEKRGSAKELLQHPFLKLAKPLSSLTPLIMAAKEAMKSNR
Procedure, shortened: as §1

[14] = molecular target: T13, CRK7 (Homo sapiens, UniProt Q9NYV4); conditions: Lys2
T13 construct: endogenous in cells; host or cells: PANC-1 cell lysate
Procedure, shortened: as §1

[15] = test system: MARK3, MARK4; conditions: 5 µM; Lys1; EVAIKIIDK
Procedure, shortened: as §1

[16] = molecular target: T14, CDK7 (Homo sapiens, UniProt P50613)
T14 construct: endogenous in cells; host or cells: PANC-1 cell lysate
T14 sequence (P50613 whole entry): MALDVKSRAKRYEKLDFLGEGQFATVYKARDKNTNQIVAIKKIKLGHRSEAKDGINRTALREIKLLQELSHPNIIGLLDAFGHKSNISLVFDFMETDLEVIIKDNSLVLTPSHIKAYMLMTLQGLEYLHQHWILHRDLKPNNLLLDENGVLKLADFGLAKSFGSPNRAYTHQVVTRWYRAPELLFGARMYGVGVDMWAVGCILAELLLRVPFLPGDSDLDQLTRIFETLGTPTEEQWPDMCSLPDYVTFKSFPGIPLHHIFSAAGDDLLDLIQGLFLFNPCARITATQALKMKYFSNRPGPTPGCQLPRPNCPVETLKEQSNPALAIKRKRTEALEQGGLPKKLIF
Procedure, shortened: as §1

[17] = molecular target: T15, MAP3K3 (Homo sapiens, UniProt Q99759); conditions: Lys1
T15 construct: endogenous in cells; host or cells: PANC-1 cell lysate
Procedure, shortened: as §1

[18] = molecular target: T16, CDK11 (Homo sapiens, UniProt Q9BWU1); conditions: Lys1
T16 construct: endogenous in cells; host or cells: PANC-1 cell lysate
Procedure, shortened: as §1

T1 sequence (Q9NWZ3 whole entry): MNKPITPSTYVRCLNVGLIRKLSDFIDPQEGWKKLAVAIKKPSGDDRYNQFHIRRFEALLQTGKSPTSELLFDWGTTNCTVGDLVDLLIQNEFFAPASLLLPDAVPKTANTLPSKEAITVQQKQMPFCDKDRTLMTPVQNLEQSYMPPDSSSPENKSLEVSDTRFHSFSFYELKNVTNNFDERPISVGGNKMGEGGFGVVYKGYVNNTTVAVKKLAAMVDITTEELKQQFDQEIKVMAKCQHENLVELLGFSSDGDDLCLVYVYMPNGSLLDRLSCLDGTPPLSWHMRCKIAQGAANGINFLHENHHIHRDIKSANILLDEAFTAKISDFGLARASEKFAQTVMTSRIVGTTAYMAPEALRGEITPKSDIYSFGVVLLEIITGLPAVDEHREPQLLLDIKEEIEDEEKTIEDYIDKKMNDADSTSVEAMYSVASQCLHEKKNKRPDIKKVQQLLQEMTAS

`Cn1cc(-c2cnc3ccc(NC(=O)Nc4ccc(F)c(C(F)(F)F)c4)cc3n2)cn1` [51-106, 1-(4-Fluoro-3-(trifluoromethyl)phenyl)-3-(3-(1-methyl-1H-pyrazol-4-yl)quinoxalin-6-yl)urea] showed an inhibition at 5 µM ([1]; Lys1, GYVNNTTVAVKK) of at most 0%, an inhibition at 5 µM ([1]; Lys2, DIKSANILLDEAFTAK) of 1.2% and an inhibition at 5 µM [2] of 1.5%. For the same compound, the inhibition at 5 µM [3] was 3.1%, the inhibition at 5 µM ([4]; VFGEDSVGVIFKNGDDLR) was 1.7% and the inhibition at 5 µM ([4]; VFGEDSVGVIFKNGDDLRQDMLTLQMLR) was 31.4%. For the same compound, the “% Inhibition” value ([5]; Lys1, VAVKILNR) was 7.5%, the “% Inhibition” value ([5]; Lys2, DLKPENVLLDAHMNAK) was 8.7% and the inhibition at 5 µM [6] was 3%. For the same compound, the inhibition at 5 µM [7] was at most 0%, the inhibition at 5 µM [8] was at most 0% and the inhibition at 5 µM ([9]; Lys1, VYTCISVDTGELMAMKEIR) was 8.6%. It also gave an inhibition at 5 µM ([9]; Lys2, DIKGANIFLTSSGLIK) of 7.1%, an inhibition at 5 µM [10] of at most 0% and an inhibition at 5 µM [11] of at most 0%. For the same compound, the inhibition at 5 µM [12] was 3.7%, the inhibition at 5 µM ([13]; Lys1, IGQGASGTVFTATDVALGQEVAIKQINLQK) was 6.9% and the inhibition at 5 µM ([13]; Other, KNPQAVLDVLKFYDSNTVK) was 0.8%. The inhibition at 5 µM [14] was 14.3%, the “% Inhibition” value [15] was “NB (NB = No Binding (≤ 0))” and the inhibition at 5 µM ([16]; Lys1, DKNTNQIVAIKK) was 16.6%. The inhibition at 5 µM ([16]; Lys2, DLKPNNLLLDENGVLK) was 1.6%, the inhibition at 5 µM [17] was 11.4% and the inhibition at 5 µM [18] was 4%.
